Laboratory results: ChEMBL document CHEMBL5625267, “Glycosidase-activated H2S donorsto enhance chemotherapy efficacy” (Bioorg Med Chem Lett, 2024)
The source made the active and inactive calls. No cut-off for these calls is given here.

Tests used:
[1] = tested on: HeLa; assay: Antiproliferative activity against human HeLa cells assessed as cell viability at 80 uM incubated for 24 hrs by MTT assay relative to control; assay type: functional; details: read-out: Activity
[2] = tested on: HepG2; assay: Antiproliferative activity against human HepG2 cells assessed as cell viability at 50 uM incubated for 24 hrs by MTT assay relative to control; assay type: functional; details: read-out: Activity
[3] = Antiproliferative activity against mouse 3T3 cells assessed as cell viability at 50 uM incubated for 24 hrs by MTT assay relative to control; assay type: toxicity, cell-based; details: NIH3T3 cells, read-out: Activity
[4] = tested on: HepG2; assay: Antiproliferative activity against human HepG2 cells assessed as cell viability at 80 uM incubated for 24 hrs by MTT assay relative to control; assay type: functional; details: read-out: Activity
[5] = tested on: HepG2; assay: Induction of apoptosis in human HepG2 cells at 80 uM incubated for 24 hrs by annexin V-FITC/propidium iodide staining based flow cytometry analysis relative to control; assay type: functional
[6] = tested on: HeLa; assay: Antiproliferative activity against human HeLa cells assessed as cell viability at 50 uM incubated for 24 hrs by MTT assay relative to control; assay type: functional; details: read-out: Activity
[7] = Release of H2S in PBS at 50 uM at pH 7.4; assay type: physicochemical; details: buffer, pH 7.4, 50 µM
[8] = tested on: HeLa; assay: Induction of apoptosis in human HeLa cells at 80 uM incubated for 24 hrs by annexin V-FITC/propidium iodide staining based flow cytometry analysis relative to control; assay type: functional
[9] = Antiproliferative activity against mouse 3T3 cells assessed as cell viability at 80 uM incubated for 24 hrs by MTT assay relative to control; assay type: toxicity, cell-based; details: NIH3T3 cells, read-out: Activity
[10] = tested on: HeLa; assay: Induction of apoptosis in human HeLa cells assessed as viable cells at 80 uM incubated for 24 hrs by annexin V-FITC/propidium iodide staining based flow cytometry analysis (reference value: 91.7 %); assay type: functional; details: read-out: Activity
[11] = tested on: HepG2; assay: Induction of apoptosis in human HepG2 cells assessed as viable cells at 80 uM incubated for 24 hrs by annexin V-FITC/propidium iodide staining based flow cytometry analysis (reference value: 87.1 %); assay type: functional; details: read-out: Activity
[12] = tested on: HeLa; assay: Induction of apoptosis in human HeLa cells assessed as late apoptotic cells at 80 uM incubated for 24 hrs by annexin V-FITC/propidium iodide staining based flow cytometry analysis (reference value: 3.95 %); assay type: functional
[13] = tested on: HepG2; assay: Cytotoxicity against human HepG2 cells assessed as cell viability at 100 uM incubated for 24 hrs in presence of doxorubicin by MTT assay relative to control; assay type: functional; details: read-out: Activity
[14] = tested on: HepG2; assay: Cytotoxicity against human HepG2 cells assessed as cell viability at 100 uM incubated for 24 hrs by MTT assay relative to control; assay type: functional; details: read-out: Activity
[15] = tested on: HeLa; assay: Induction of apoptosis in human HeLa cells assessed as early apoptotic cells at 80 uM incubated for 24 hrs by annexin V-FITC/propidium iodide staining based flow cytometry analysis (reference value: 3.59 %); assay type: functional
[16] = tested on: HepG2; assay: Induction of apoptosis in human HepG2 cells assessed as necrotic cells at 80 uM incubated for 24 hrs by annexin V-FITC/propidium iodide staining based flow cytometry analysis (reference value: 1.63 %); assay type: functional
[17] = tested on: HepG2; assay: Cytotoxicity against human HepG2 cells assessed as cell viability at 80 uM incubated for 24 hrs in presence of doxorubicin by MTT assay relative to control; assay type: functional; details: read-out: Activity
[18] = tested on: HepG2; assay: Release of H2S in human HepG2 cells assessed as fold increase in fluorescence intensity at 50 uM incubated for 7 hrs in presence of fluorescent probe WPS-1 measured after 30 mins by confocal imaging analysis; assay type: ADME, cell-based; details: hepg2, 7.5 h
[19] = tested on: HeLa; assay: Induction of apoptosis in human HeLa cells assessed as necrotic cells at 80 uM incubated for 24 hrs by annexin V-FITC/propidium iodide staining based flow cytometry analysis (reference value: 0.71 %); assay type: functional
[20] = tested on: HepG2; assay: Induction of apoptosis in human HepG2 cells assessed as late apoptotic cells at 80 uM incubated for 24 hrs by annexin V-FITC/propidium iodide staining based flow cytometry analysis (reference value: 10.1 %); assay type: functional
[21] = tested on: HepG2; assay: Induction of apoptosis in human HepG2 cells assessed as early apoptotic cells at 80 uM incubated for 24 hrs by annexin V-FITC/propidium iodide staining based flow cytometry analysis (reference value: 1.03 %); assay type: functional
[22] = tested on: HepG2; assay: Cytotoxicity against human HepG2 cells assessed as cell viability at 80 uM incubated for 24 hrs by MTT assay relative to control; assay type: functional; details: read-out: Activity
[23] = tested on: HepG2; assay: Cytotoxicity against human HepG2 cells assessed as cell viability at 2 ug/ml incubated for 24 hrs by MTT assay relative to control; assay type: functional; details: read-out: Activity

| SMILES | Activity [7] [%] | viability at 80 µM [1] [%] | viability at 50 µM [2] [%] | viability at 24 h, 50 µM [3] [%] | viability at 80 µM [4] [%] | Activity [5] | viability at 50 µM [6] [%] | Activity [8] | viability at 24 h, 80 µM [9] [%] | further results |
| --- | --- | --- | --- | --- | --- | --- | --- | --- | --- | --- |
| Cc1ccc(NC(=S)OCc2ccc(O[C@@H]3O[C@H](CO)[C@@H](O)[C@H](O)[C@H]3O)cc2)cc1 | 36 | 90.8 | 91 | 102 | 85.3 | inactive | 86.9 | inactive | 95 |  |
| Cc1ccc(NC(=S)OCc2ccc(O[C@@H]3O[C@H](CO)[C@H](O)[C@H](O)[C@H]3O)cc2)cc1 | 36 | 96.3 | 95.8 | 110 | 96.9 | inactive | 97.1 | inactive | 103 |  |
| COc1cccc2c1C(=O)c1c(O)c3c(c(O)c1C2=O)C[C@@](O)(C(=O)CO)C[C@@H]3O[C@H]1C[C@H](N)[C@H](O)[C@H](C)O1 [DOXORUBICIN] |  |  |  |  |  |  |  |  |  | viability at 2 µg/mL [23]: 100% |
| OC[C@H]1O[C@H](Oc2ccc(COC(=S)Nc3ccc(C(F)(F)F)cc3)cc2)[C@@H](O)[C@@H](O)[C@@H]1O | 36 | 95 | 81.7 | 94.5 | 90.2 | inactive | 97.4 | inactive | 95.3 |  |
| O=C(Nc1ccc(C(F)(F)F)cc1)OCc1ccc(O[C@H]2O[C@H](CO)[C@@H](O)[C@H](O)[C@@H]2O)c(Br)c1 |  |  |  |  | 51.6 |  |  |  |  |  |
| OC[C@H]1O[C@@H](Oc2ccc(COC(=S)Nc3ccc(C(F)(F)F)cc3)cc2)[C@H](O)[C@@H](O)[C@@H]1O | 36 | 92 | 87.9 | 88.1 | 91.2 | inactive | 86.9 | inactive | 91.7 |  |

Now from value to molecule, other results behind:

| Activity [7] [%] | SMILES | viability at 80 µM [1] [%] | viability at 50 µM [2] [%] | viability at 24 h, 50 µM [3] [%] | viability at 80 µM [4] [%] | Activity [5] | viability at 50 µM [6] [%] | Activity [8] | viability at 24 h, 80 µM [9] [%] | further results |
| --- | --- | --- | --- | --- | --- | --- | --- | --- | --- | --- |
| 36 | OC[C@H]1O[C@@H](Oc2ccc(COC(=S)Nc3ccc(C(F)(F)F)cc3)cc2F)[C@H](O)[C@@H](O)[C@@H]1O | 100 | 88.6 | 88.9 | 86 | inactive | 96 | inactive | 90.8 |  |
| 36 | OC[C@H]1O[C@@H](Oc2ccc(COC(=S)Nc3ccc(C(F)(F)F)cc3)cc2F)[C@H](O)[C@@H](O)[C@H]1O | 96 | 88.9 | 97.3 | 86 | inactive | 94.6 | inactive | 87.9 |  |
| 36 | OC[C@H]1O[C@H](Oc2ccc(COC(=S)Nc3ccc(C(F)(F)F)cc3)cc2Br)[C@@H](O)[C@@H](O)[C@@H]1O | 70.8 | 53.2 | 83.6 | 37.6 | 51.8% | 102 | 45.2% | 62.3 | viability at 80 µM [10]: 50.6%; viability at 80 µM [11]: 50.7%; Activity [12]: 23.3%; viability at 100 µM [13]: 46%; viability at 100 µM [14]: 67%; Activity [15]: 21.1%; Activity [16]: 1.13%; viability at 80 µM [17]: 64%; fold change (FC) [18]: 7; Activity [19]: 4.98%; Activity [20]: 37.4%; Activity [21]: 10.8%; viability at 80 µM [22]: 73% |
| 36 | OC[C@H]1O[C@@H](Oc2ccc(COC(=S)Nc3ccc(C(F)(F)F)cc3)cc2Br)[C@H](O)[C@@H](O)[C@@H]1O | 92.1 | 87.3 | 93.5 | 61.8 | inactive | 95.3 | inactive | 92.7 |  |
| 36 | OC[C@H]1O[C@@H](Oc2ccc(COC(=S)Nc3ccc(C(F)(F)F)cc3)cc2Br)[C@H](O)[C@@H](O)[C@H]1O | 88.2 | 82.2 | 86.8 | 86.8 | 20.9% | 97.5 |  | 89.2 |  |
| 36 | OC[C@H]1O[C@@H](Oc2ccc(COC(=S)Nc3ccc(C(F)(F)F)cc3)cc2)[C@H](O)[C@@H](O)[C@H]1O | 82.1 | 78.1 | 89.8 | 68.9 | inactive | 92 | inactive | 86.2 |  |
| 36 | OC[C@H]1O[C@H](Oc2ccc(COC(=S)Nc3ccc(C(F)(F)F)cc3)cc2F)[C@@H](O)[C@@H](O)[C@@H]1O | 72.6 | 45.7 | 86.3 | 49 | 24.4% | 78.7 | 40.6% | 83.9 | viability at 80 µM [10]: 56.8%; viability at 80 µM [11]: 76.3%; Activity [12]: 23.9%; Activity [15]: 8.14%; Activity [16]: 3.44%; Activity [19]: 8.15%; Activity [20]: 18.3%; Activity [21]: 1.03% |
